We go through one compound from US20020028807A1, “Non-nucleoside reverse transcriptase inhibitors” (priority 2000, published 2002).

The subject of test [1] is HIV coding for mutant reverse transcriptase Y181C. Nature of the test: ELISA (p24) assay of HIV replication in C8166 cell culture, Y181C virus. The format is cell-based, HIV-1. The note with it: Human immunodeficiency virus 1, C8166, 72 h, read-out: EC50 Y181C. As for the experimental part:
(§1) Compounds of the invention were tested for their ability to inhibit HIV replication in cell culture in a 96-well plate assay. Complete RPMI 1640, consisting of RPMI 1640+10% fetal bovine serum, 10 μg/ml gentamycin and 10 μM β-mercaptoethanol was used for dilution of the compound as well as cell growth medium. The T lymphocyte cell line C8166 was infected at a multiplicity of infection of 0.001 with viruses coding for wild-type and mutant reverse transcriptase. Cells were then incubated for three days in the presence of serial dilutions of the compounds of the invention. The supernatant was pooled from eight replica wells and the concentration of extracellular p24 was determined using a commercially available HIV-1 p24 antigen assay kit (Beckman-Coulter®). The level of inhibition (% inhibition) was calculated with the following equation: [formula]
(ELISA stands for enzyme-linked immunosorbent assay.)

Test [2] relates to HIV coding for wild-type reverse transcriptase (WT RT). As to the kind of experiment: ELISA (p24) assay of HIV replication in C8166 cell culture, wild-type RT virus. Type of test: cell-based, HIV-1. Conditions: Human immunodeficiency virus 1, C8166, 72 h, read-out: EC50 WT RT. The method, boiled down: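 C8166 T cells infected at MOI 0.001 with wild-type or mutant RT HIV, then grown 3 days with serial compound dilutions in RPMI 1640 + 10% FBS. Extracellular p24 in supernatant pooled from eight replica wells measured by ELISA; % inhibition calculated from p24 levels.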

Another test deals with T1, HIV-1 RT K103N/V108I (Human immunodeficiency virus type 1 group M subtype B, UniProt P03366, K702N/V707I).
T1 construct: an HIV RT clone pKRT2 containing only the RT p66 gene regulated by the lac operon/trc promoter; made in house; host or cells: E. coli JM109, vector pKK233-2
As to the kind of experiment: Reverse transcriptase (RT) assay, K103N/V108I mutant. The format is biochemical. Summed up:
(§2)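 Tritium incorporation from 3H-dGTP into newly synthesised DNA is the read-out. The mutant reverse transcriptases copy a synthetic poly r(C) template carrying a biotinylated oligo d(G) primer. Each mutant enzyme is tested under the same conditions used for wild-type RT.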

The test system of test [3] is HIV coding for mutant reverse transcriptase K103N/V108I. As to the kind of experiment: ELISA (p24) assay of HIV replication in C8166 cell culture, K103N/V108I virus. The format is cell-based, HIV-1. The note with it: Human immunodeficiency virus 1, C8166, 72 h, read-out: EC50 K103N/V108I. As for the experimental part:
as §1

Another test concerns the target T2, HIV-1 RT V106A (Human immunodeficiency virus type 1 group M subtype B, UniProt P03366, V705A).
T2 construct: an HIV RT clone pKRT2 containing only the RT p66 gene regulated by the lac operon/trc promoter; made in house; host or cells: E. coli JM109, vector pKK233-2
Nature of the test: Reverse transcriptase (RT) assay, V106A mutant. Type of test: biochemical. The method, boiled down:
as §2

Another test deals with T3, HIV-1 RT K103N/P225H (Human immunodeficiency virus type 1 group M subtype B, UniProt P03366, K702N/P824H).
T3 construct: an HIV RT clone pKRT2 containing only the RT p66 gene regulated by the lac operon/trc promoter; made in house; host or cells: E. coli JM109, vector pKK233-2
Nature of the test: Reverse transcriptase (RT) assay, K103N/P225H mutant. Type of test: biochemical. Summed up: as §2

A further test has as its target T4, HIV-1 RT K103N (Human immunodeficiency virus type 1 group M subtype B, UniProt P03366, K702N).
T4 construct: an HIV RT clone pKRT2 containing only the RT p66 gene regulated by the lac operon/trc promoter; made in house; host or cells: E. coli JM109, vector pKK233-2
As to the kind of experiment: Reverse transcriptase (RT) assay, K103N mutant. The format is biochemical. The method, boiled down:
as §2

In test [4] the test system is HIV coding for mutant reverse transcriptase K103N/L100I. As to the kind of experiment: ELISA (p24) assay of HIV replication in C8166 cell culture, K103N/L100I virus. Type of test: cell-based, HIV-1. The note with it: Human immunodeficiency virus 1, C8166, 72 h, read-out: EC50 K103N/L100I. As for the experimental part: as §1
The target in a further test is T5, HIV-1 RT Y181C (Human immunodeficiency virus type 1 group M subtype B, UniProt P03366, Y780C).
T5 construct: an HIV RT clone pKRT2 containing only the RT p66 gene regulated by the lac operon/trc promoter; made in house; host or cells: E. coli JM109, vector pKK233-2
As to the kind of experiment: Reverse transcriptase (RT) assay, Y181C mutant. Type of test: biochemical. Summed up: as §2

The test system of test [5] is HIV coding for mutant reverse transcriptase K103N. As to the kind of experiment: ELISA (p24) assay of HIV replication in C8166 cell culture, K103N virus. Type of test: cell-based, HIV-1. Conditions: Human immunodeficiency virus 1, C8166, 72 h, read-out: EC50 K103N. As for the experimental part:
as §1

Test [6] has as its system HIV coding for mutant reverse transcriptase K103N/P225H. As to the kind of experiment: ELISA (p24) assay of HIV replication in C8166 cell culture, K103N/P225H virus. The format is cell-based, HIV-1. The note with it: Human immunodeficiency virus 1, C8166, 72 h, read-out: EC50 K103N/P225H. As for the experimental part:
as §1

In the next test the target is T6, HIV-1 RT Y188L (Human immunodeficiency virus type 1 group M subtype B, UniProt P03366, Y787L).
T6 construct: an HIV RT clone pKRT2 containing only the RT p66 gene regulated by the lac operon/trc promoter; made in house; host or cells: E. coli JM109, vector pKK233-2
Nature of the test: Reverse transcriptase (RT) assay, Y188L mutant. The format is biochemical. Summed up: as §2

The next test has as its target T7, HIV-1 RT wild-type (WT) (Human immunodeficiency virus type 1 group M subtype B, UniProt P03366).
T7 construct: an HIV RT clone pKRT2 containing only the RT p66 gene regulated by the lac operon/trc promoter; made in house; host or cells: E. coli JM109, vector pKK233-2
Nature of the test: Reverse transcriptase (RT) assay, wild-type enzyme. The format is biochemical.

Test [7] has as its system HIV coding for mutant reverse transcriptase V106A. Nature of the test: ELISA (p24) assay of HIV replication in C8166 cell culture, V106A virus. The note with it: Human immunodeficiency virus 1, C8166, 72 h, read-out: EC50 V106A. The format is cell-based, HIV-1. As for the experimental part: as §1
In another test the target is T8, HIV-1 RT K103N/Y181C (Human immunodeficiency virus type 1 group M subtype B, UniProt P03366, K702N/Y780C).
T8 construct: an HIV RT clone pKRT2 containing only the RT p66 gene regulated by the lac operon/trc promoter; made in house; host or cells: E. coli JM109, vector pKK233-2
As to the kind of experiment: Reverse transcriptase (RT) assay, K103N/Y181C mutant. Type of test: biochemical. Summed up:
as §2

The next test deals with T9, HIV-1 RT K103N/L100I (Human immunodeficiency virus type 1 group M subtype B, UniProt P03366, K702N/L699I).
T9 construct: an HIV RT clone pKRT2 containing only the RT p66 gene regulated by the lac operon/trc promoter; made in house; host or cells: E. coli JM109, vector pKK233-2
As to the kind of experiment: Reverse transcriptase (RT) assay, K103N/L100I mutant. Type of test: biochemical. Summed up: as §2

The IC50 is the midpoint of a concentration-inhibition curve. As for `CCN1c2ncc(CCOc3cc[n+]([O-])c4ccccc34)cc2C(=O)Nc2c(C)ccnc21` [compound 12, 5,11-Dihydro-11-ethyl-4-methyl-8-{2-{(1-oxido-4-quinolinyl)oxy}ethyl}-6H-dipyrido[3,2-b:2′,3′-e][1,4]diazepin-6-one], the EC50 worked out at 2.7 nM in [1]; 0.26 nM in test [2]; 5 nM in test [3]; 2.9 nM in [4]; 2.8 nM in test [5]; 1.5 nM in test [6]. The EC50 in test [7] was found to be 12.4 nM. In addition, the IC50 was 75 nM at HIV-1 RT K103N/V108I; 121 nM at HIV-1 RT V106A; 38 nM at HIV-1 RT K103N/P225H; 31 nM on HIV-1 RT K103N; 38 nM on HIV-1 RT Y181C; over 10000 nM on HIV-1 RT Y188L. Also, the IC50 on HIV-1 RT wild-type (WT) stood at 12 nM; at HIV-1 RT K103N/Y181C, 212 nM; on HIV-1 RT K103N/L100I, 124 nM.
